According to patent US20240199754A1 (VANCOUVER BIOTECH LTD., priority 2021, published 2024):

Key:
[1] = test system: pituitary GnRH receptor; assay: Large scale proof of concept experiment, male rabbits (testosterone, LH); format: in vivo, rabbit
Description: (§1) With preliminary observations in single rabbit data, large scale rabbit experiments (n≥30) including negative controls were conducted with identical protocols. […] The data generated in each experimental group were analyzed statistically. The means and standard deviations of hormone levels from rabbits in each experimental group are presented in FIGS. 6-9 and corresponding selected statistical analyses and separate comparisons with those of the negative controls are presented in Table 1 to Table 4.
In the case of male rabbits, the serum concentrations of reproductive hormones including LH and testosterone of ten male rabbits were monitored and measured after a single subcutaneous injection with 1 mg/kg of GHR-106 (low dosage, n=3) or 3 mg/kg of GHR-106 (high dosage, n=3) on day 1, or after no injection (negative control, n=4). Serum testosterone levels were determined and the averages (with standard deviations) were determined from day 1 to day 17, and serum LH levels were determined starting on day 1 and ending on day 13 (with standard deviations) The results of the testosterone profile are found in FIG. 6. The results of the LH profile are found in FIG. 7. Selected statistical analyses and separate comparisons with those of the negative controls for FIG. 6 and FIG. 7 are found in Table 1 and Table 2, respectively.

[2] = test system: pituitary GnRH receptor; assay: Serum LH and estradiol after single injection, female rabbit; format: in vivo
Description: The hormonal profiles of serum luteinizing hormone (LH) and Estradiol (E2) in female rabbits were monitored upon a single injection with a 3 mg/kg dose of hGHR-106.

[3] = in vivo; cited from earlier work
[4] = test system: human cancer cells; details: 24 to 72 hours co-incubation with 1-10 μg/ml; cited from earlier work
[5] = test system: pituitary GnRH receptor; assay: Serum LH and testosterone after single injection, single adult male rabbit; format: in vivo
Description: In the case of male rabbits, serum concentrations of reproductive hormones including luteinizing hormone (LH) and testosterone were monitored regularly following a single subcutaneous injection with 3 mg/kg of hGHR-106.
The serum LH and testosterone concentrations were determined, respectively, by EIA kits and plotted as a function of time during the day 1 to 30 time period.

[6] = test system: N1-29 peptide of monkey GnRH receptor; details: cited from earlier work
Sequence of N1-29 peptide of monkey GnRH receptor (as listed by the source): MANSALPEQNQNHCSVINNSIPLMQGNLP

[7] = biological target: T1, GnRHR (Homo sapiens, UniProt P30968); assay: Detection of GnRHR overexpression in a reference cell line; format: cell-based; details: compared with four commercially available antibodies
T1 sequence (P30968 1-328): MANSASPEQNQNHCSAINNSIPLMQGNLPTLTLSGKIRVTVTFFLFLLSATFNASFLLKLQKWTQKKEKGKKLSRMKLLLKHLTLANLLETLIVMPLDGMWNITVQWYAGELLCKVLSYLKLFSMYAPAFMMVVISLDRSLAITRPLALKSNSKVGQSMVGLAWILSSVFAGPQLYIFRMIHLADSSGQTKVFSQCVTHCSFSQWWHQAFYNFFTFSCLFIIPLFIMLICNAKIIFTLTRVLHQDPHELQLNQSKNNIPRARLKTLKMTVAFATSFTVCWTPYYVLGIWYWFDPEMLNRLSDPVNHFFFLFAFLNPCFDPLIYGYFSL
Description: In particular, the ability of GHR-106 to detect overexpression of GnRHR in a reference cell line is tested and compared with four different commercially available antibodies.

[8] = test system: N1-29 synthetic oligopeptide of GnRH receptor from rabbit; assay: Comparative binding ELISA on well-coated N1-29 oligopeptide (rabbit); details: vs unrelated RP215 negative control
Sequence of N1-29 synthetic oligopeptide of GnRH receptor from rabbit (as listed by the source): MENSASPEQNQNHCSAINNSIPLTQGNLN
Description: (§2) Therefore, comparative binding ELISA studies were performed to estimate the relative binding affinity between GHR-106 and microwell-coated N1-29 oligopeptides derived from human, dog and rabbit, respectively. The results of such binding studies are presented and compared in FIG. 2.
(§3) Unrelated RP215 monoclonal antibody was used as the negative control for any blank subtractions. Goat anti-human IgG labeled with alkaline phosphatase was used as the second antibody for signal detection. P-nitrophenyl phosphate was used as the substrate and monitored at 405 nm and double log plot presented.

[9] = test system: pituitary GnRH receptor; assay: Large scale proof of concept experiment, female rabbits (estradiol, LH); format: in vivo, rabbit
Description: as §1
Target sequence in this assay (as listed by the source): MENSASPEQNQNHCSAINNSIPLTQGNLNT
In the case of female rabbits, the serum concentrations of reproductive hormones including LH and estradiol (E2) of ten female rabbits were monitored and measured after a single subcutaneous injection with 1 mg/kg of GHR-106 (low dosage, n=3) or 3 mg/kg of GHR-106 (high dosage, n=3) on day 1, or after no injection (negative control, n=4). Serum E2 levels were determined starting on day 1 and ending on day 17, and serum LH levels were determined starting on day 1 and ending on day 13. The results of the estradiol (E2) profile are found in FIG. 8. The results of the LH profile are found in FIG. 9. Selected statistical analyses and separate comparisons with those of the negative controls for FIG. 8 and FIG. 9 are found in Table 3 and Table 4, respectively.

[10] = test system: OC-3-VGH ovarian cancer cells; assay: Quantitative RT-PCR gene regulation study; format: cell-based, human; details: quantitative RT-PCR after incubation with cancer cells
[11] = test system: N1-29 peptide of dog GnRH receptor; details: cited from earlier work
Sequence of N1-29 peptide of dog GnRH receptor (as listed by the source): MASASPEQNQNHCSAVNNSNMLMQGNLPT

[12] = biological target: T2, N1-29 synthetic oligopeptide of GnRH receptor from humans (Homo sapiens, UniProt P30968); assay: Comparative binding ELISA on well-coated N1-29 oligopeptide (human); details: vs unrelated RP215 negative control
T2 sequence (P30968 1-30): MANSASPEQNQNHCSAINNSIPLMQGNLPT
Description: as §2, §3

[13] = test system: pituitary GnRH receptor; assay: Proof-of-concept rabbit experiments overall (single and multi-rabbit); format: in vivo; details: single injection, 1 mg/kg or 3 mg/kg
Description: as §1

[14] = test system: N1-29 peptide of rabbit GnRH receptor; details: cited from earlier work
[15] = test system: N1-29 synthetic oligopeptide of GnRH receptor from dog; assay: Comparative binding ELISA on well-coated N1-29 oligopeptide (dog); details: vs unrelated RP215 negative control
Description: as §2, §3

[16] = test system: N1-29 peptide of cat GnRH receptor; details: cited from earlier work
Sequence of N1-29 peptide of cat GnRH receptor (as listed by the source): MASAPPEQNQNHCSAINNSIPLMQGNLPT

[17] = biological target: T3, N1-29 synthetic oligopeptide of human GnRH receptor (human); assay: ELISA on well-coated N1-29 peptide, goat anti-human IgG-alkaline phosphatase, OD 405 nm
T3 construct: Synthetic peptide coated on microwells; also called human N1-29 peptide; N1-29 oligopeptide
T3 peptide: T2 sequence (P30968 1-30)

[18] = male rabbit, single subcutaneous injection of 1 mg/kg or 3 mg/kg
[19] = male rabbits, single injection day 1, low (1 mg/kg) or high (3 mg/kg) dosage, vs negative control
[20] = single injection day 1, low (1 mg/kg) or high (3 mg/kg) dosage, vs negative control

GHR-106: monoclonal antibody against N1-29 oligopeptide of human GnRH receptor; examples use humanized IgG4 form, heavy chain SEQ ID NO:7, light chain SEQ ID NO:8
decrease of serum LH concentration, of the normal level [1, 18]: 80 to 90%
decrease of serum testosterone concentration, of the normal level [1, 18]: 80 to 90%
period of decreased serum LH and testosterone [1, 18]: seven to ten
time until reproductive hormones returned to normal levels after the initial injection [1, 18]: approximately two
t test, LH profile, neg. ctrl to 1 mg/kg ([1]; male rabbits, Day 3, 1 mg/kg): 3.579
t test, testosterone profile, neg. ctrl to 1 mg/kg ([1]; male rabbits, Day 3, 1 mg/kg): 2.966
t test, LH profile, neg. ctrl to 3 mg/kg ([1]; male rabbits, Day 3, 3 mg/kg): 1.474
t test, testosterone profile, neg. ctrl to 3 mg/kg ([1]; male rabbits, Day 3, 3 mg/kg): 4.2
t test, LH profile, neg. ctrl to 1 mg/kg ([1]; male rabbits, Day 5, 1 mg/kg): 4.698
t test, testosterone profile, neg. ctrl to 1 mg/kg ([1]; male rabbits, Day 5, 1 mg/kg): 3.353
t test, LH profile, neg. ctrl to 3 mg/kg ([1]; male rabbits, Day 5, 3 mg/kg): 3.596
t test, testosterone profile, neg. ctrl to 3 mg/kg ([1]; male rabbits, Day 5, 3 mg/kg): 3.851
t test, LH profile, neg. ctrl to 1 mg/kg ([1]; male rabbits, Day 7, 1 mg/kg): 4.126
t test, testosterone profile, neg. ctrl to 1 mg/kg ([1]; male rabbits, Day 7, 1 mg/kg): 1.086
t test, LH profile, neg. ctrl to 3 mg/kg ([1]; male rabbits, Day 7, 3 mg/kg): 3.62
t test, testosterone profile, neg. ctrl to 3 mg/kg ([1]; male rabbits, Day 7, 3 mg/kg): 7.396
t test, LH profile, neg. ctrl to 1 mg/kg ([1]; male rabbits, Day 9, 1 mg/kg): 2.936
t test, testosterone profile, neg. ctrl to 1 mg/kg ([1]; male rabbits, Day 9, 1 mg/kg): 0.3439
t test, LH profile, neg. ctrl to 3 mg/kg ([1]; male rabbits, Day 9, 3 mg/kg): 3.56
t test, testosterone profile, neg. ctrl to 3 mg/kg ([1]; male rabbits, Day 9, 3 mg/kg): 0.8405
serum LH levels [1, 19]: reversibly suppressed
serum testosterone levels [1, 19]: reversibly suppressed
serum LH ([2]; 3 mg/kg single injection, first few days, from 3 mlU/ml): ≤ 1 mlU/ml
serum E2 concentration ([2]; 3 mg/kg single injection, until day 10, from 50 pg/ml): ≤ 20 pg/mL
serum E2 concentration reached on recovery ([2]; 3 mg/kg, after day 18 and 20): 120 pg/mL
serum LH concentration reached on recovery ([2]; 3 mg/kg, after day 18 and 20): 6 mIU/ml
half-life [3]: 120 to 504 h
degrees of induced apoptosis [4]: comparable to those of the decapeptide GnRH antagonist, Antide
duration of low LH levels ([5]; 3 mg/kg s.c.): at least one to two
serum LH ([5]; 3 mg/kg s.c., after 24-48 hours, from 3.5 mlU/ml): < 0.5 mlU/ml
serum LH, stable normal range reached ([5]; 3 mg/kg s.c., end of the third week): 2.9-5.0 mlU/ml
decrease of serum testosterone concentration ([5]; 3 mg/kg single injection, first two weeks): more than 80%
serum testosterone concentration ([5]; 3 mg/kg single injection, first two weeks, from 0.95 ng/ml): ≤ 0.1 ng/mL
LH and testosterone hormone levels ([5]; 3 mg/kg, day 30): within the normal range
cross-reactivity with N1-29 peptide [6]: cross-reacts
ability to detect overexpression of GnRHR [7]: able to detect overexpression of GnRHR
binding affinity to N1-29 peptide (ELISA, ΔOD 405 nm) [8]: comparable to one another
t test, LH profile, neg. ctrl to 1 mg/kg ([9]; Day 3, 1 mg/kg): 3.93
t test, estradiol (E2) profile, neg. ctrl to 1 mg/kg ([9]; Day 3, 1 mg/kg): 1.179
t test, LH profile, neg. ctrl to 3 mg/kg ([9]; Day 3, 3 mg/kg): 6.348
t test, estradiol (E2) profile, neg. ctrl to 3 mg/kg ([9]; Day 3, 3 mg/kg): 1.125
t test, LH profile, neg. ctrl to 1 mg/kg ([9]; Day 5, 1 mg/kg): 6.556
t test, estradiol (E2) profile, neg. ctrl to 1 mg/kg ([9]; Day 5, 1 mg/kg): 2.893
t test, LH profile, neg. ctrl to 3 mg/kg ([9]; Day 5, 3 mg/kg): 5.114
t test, estradiol (E2) profile, neg. ctrl to 3 mg/kg ([9]; Day 5, 3 mg/kg): 2.039
t test, LH profile, neg. ctrl to 1 mg/kg ([9]; Day 7, 1 mg/kg): 6.018
t test, estradiol (E2) profile, neg. ctrl to 1 mg/kg ([9]; Day 7, 1 mg/kg): 2.807
t test, LH profile, neg. ctrl to 3 mg/kg ([9]; Day 7, 3 mg/kg): 4.126
t test, estradiol (E2) profile, neg. ctrl to 3 mg/kg ([9]; Day 7, 3 mg/kg): 2.45
t test, LH profile, neg. ctrl to 1 mg/kg ([9]; Day 9, 1 mg/kg): 1.1
t test, estradiol (E2) profile, neg. ctrl to 1 mg/kg ([9]; Day 9, 1 mg/kg): 3.048
t test, LH profile, neg. ctrl to 3 mg/kg ([9]; Day 9, 3 mg/kg): 4.126
t test, estradiol (E2) profile, neg. ctrl to 3 mg/kg ([9]; Day 9, 3 mg/kg): 5.087
serum LH levels [9, 20]: reversibly suppressed
serum estradiol (E2) levels [9, 20]: reversibly suppressed
gene expression changes of ten regulatory genes, compared between GHR-106 and Antide [10]: strong similarity
cross-reactivity with N1-29 peptide [11]: cross-reacts
binding affinity to N1-29 peptide (ELISA, ΔOD 405 nm) [12]: comparable to one another
time until hormone levels return to normal ranges [13]: 1-3 weeks
cross-reactivity with N1-29 peptide [14]: cross-reacts
binding affinity to N1-29 peptide (ELISA, ΔOD 405 nm) [15]: comparable to one another
cross-reactivity with N1-29 peptide [16]: cross-reacts

B1: GHR-106(hIgG4), humanized IgG4 GHR-106 monoclonal antibody (antibody, V domains shown)
VH: QVQLQESGPGLVKPSETLSLTCTVSGFSLSRYSVHWIRQPPGKGLEWIGMIWGGGSTDYNPSLKSRVTISKDNSKSQVFLKMSSVTAADTAMYYCARGNDGYYSFAYWGQGTLVTVSS
VL: DIVMTQSPDSLAVSLGERATINCKSSQSLLNSRTRKNYLAWYQQKPGQSPKLLIYWASTRESGVPDRFSGSGSGTDFTLTISSLQAEDVAVYYCKQSYNLYTFGQGTKLEIKR
notes: Humanized IgG4
binding result [17]: binds
